Source: article PMC7655034, “Identification of a dual TAOK1 and MAP4K5 inhibitor using a structure-based virtual screening approach” (Journal of Enzyme Inhibition and Medicinal Chemistry, 2020)
Where “and” joins values, the source holds several entries; their conditions need not be identical. Equal values may be shown once.

Tests used:
MAP4K5 = target: T1, MAP4K5 (Homo sapiens, UniProt Q9Y4K4); assay: Enzymatic assay (Z'-LYTE, Thermo Fisher); type: biochemical; details: for Inhibition percentage at 10 μM MAP4K5 / inhibition at 10 µM: 10 μM compound, average of two replicates; for inhibition at 10 µM: read-out: Inhibition percentage at 10 μM MAP4K5
T1 construct: purchased Thermo Fisher Scientific (outsourced assay service)
T1 sequence (Q9Y4K4 whole entry): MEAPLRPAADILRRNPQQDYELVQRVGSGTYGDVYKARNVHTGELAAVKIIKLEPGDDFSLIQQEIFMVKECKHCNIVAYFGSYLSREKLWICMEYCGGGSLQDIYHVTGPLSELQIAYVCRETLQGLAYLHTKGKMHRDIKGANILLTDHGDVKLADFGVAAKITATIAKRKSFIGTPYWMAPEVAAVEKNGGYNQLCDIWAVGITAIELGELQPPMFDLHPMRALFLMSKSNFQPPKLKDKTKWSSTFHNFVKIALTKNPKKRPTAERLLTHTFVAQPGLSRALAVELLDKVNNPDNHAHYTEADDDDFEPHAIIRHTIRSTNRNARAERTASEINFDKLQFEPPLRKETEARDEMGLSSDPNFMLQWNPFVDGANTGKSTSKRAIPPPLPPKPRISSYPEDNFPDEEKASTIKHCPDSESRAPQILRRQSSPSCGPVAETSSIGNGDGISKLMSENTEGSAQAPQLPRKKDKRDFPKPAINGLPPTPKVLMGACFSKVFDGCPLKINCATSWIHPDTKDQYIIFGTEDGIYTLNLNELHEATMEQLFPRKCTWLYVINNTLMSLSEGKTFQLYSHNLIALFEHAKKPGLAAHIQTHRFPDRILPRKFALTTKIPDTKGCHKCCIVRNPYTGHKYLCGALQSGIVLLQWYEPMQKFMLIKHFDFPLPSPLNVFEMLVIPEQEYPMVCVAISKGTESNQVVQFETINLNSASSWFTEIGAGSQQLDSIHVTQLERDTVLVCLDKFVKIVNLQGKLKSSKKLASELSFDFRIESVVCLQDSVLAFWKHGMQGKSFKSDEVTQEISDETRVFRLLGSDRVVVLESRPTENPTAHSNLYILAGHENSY
Protocol: (§1) The enzymatic assay was outsourced to Thermo Fisher Scientific to conduct. They used LanthaScreen and Z´-LYTE technology, which were both robust homogeneous assays method by Fluorescence Resonance Energy Transfer (FRET) to evaluate TAOK1 and MAP4K5, respectively. Briefly, the test compound was co-incubated with fluorescein-labelled substrate, kinase, ATP, kinase buffer and development reagent for reaction. After 1 h, the stop solution (EDTA) was added and then the results were determined by a fluorescence reader. The data was shown as an average of two replicates.

TAOK1 = target: T2, TAOK1 (Homo sapiens, UniProt Q7L7X3); assay: Enzymatic assay (LanthaScreen, Thermo Fisher); type: biochemical; details: for Inhibition percentage at 10 μM TAOK1 / inhibition at 10 µM: 10 μM compound, average of two replicates; for inhibition at 10 µM: read-out: Inhibition percentage at 10 μM TAOK1
T2 construct: purchased Thermo Fisher Scientific (outsourced assay service)
T2 sequence (Q7L7X3 1-1001): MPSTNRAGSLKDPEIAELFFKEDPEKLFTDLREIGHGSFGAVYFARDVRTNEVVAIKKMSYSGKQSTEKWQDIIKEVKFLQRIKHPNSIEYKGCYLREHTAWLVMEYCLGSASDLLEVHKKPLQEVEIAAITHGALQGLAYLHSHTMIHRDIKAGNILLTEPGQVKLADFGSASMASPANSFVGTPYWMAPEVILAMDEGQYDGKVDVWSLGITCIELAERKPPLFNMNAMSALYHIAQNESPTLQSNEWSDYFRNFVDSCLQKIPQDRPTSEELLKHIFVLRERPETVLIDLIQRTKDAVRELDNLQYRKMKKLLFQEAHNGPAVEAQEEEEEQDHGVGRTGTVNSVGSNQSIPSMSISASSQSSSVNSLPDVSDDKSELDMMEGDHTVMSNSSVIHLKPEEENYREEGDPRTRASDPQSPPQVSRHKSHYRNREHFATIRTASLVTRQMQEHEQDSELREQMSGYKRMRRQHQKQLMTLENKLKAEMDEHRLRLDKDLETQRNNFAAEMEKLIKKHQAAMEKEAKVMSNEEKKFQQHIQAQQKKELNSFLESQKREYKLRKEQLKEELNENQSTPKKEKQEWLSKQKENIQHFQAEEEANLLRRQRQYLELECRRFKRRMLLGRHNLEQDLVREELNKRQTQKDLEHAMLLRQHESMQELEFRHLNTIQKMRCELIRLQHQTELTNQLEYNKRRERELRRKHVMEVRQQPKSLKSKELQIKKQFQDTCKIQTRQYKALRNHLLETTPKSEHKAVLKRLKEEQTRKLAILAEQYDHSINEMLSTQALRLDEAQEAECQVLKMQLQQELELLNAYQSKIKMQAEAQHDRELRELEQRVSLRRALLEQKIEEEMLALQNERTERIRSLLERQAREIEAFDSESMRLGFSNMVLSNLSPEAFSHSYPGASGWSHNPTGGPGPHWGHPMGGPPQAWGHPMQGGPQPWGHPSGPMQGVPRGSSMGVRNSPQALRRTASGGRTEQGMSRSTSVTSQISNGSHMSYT
Protocol: as §1

H1299 cells [1] = assay: SRB cell proliferation assay; type: cell-based; details: Homo sapiens, NCI-H1299, 48 h, read-out: GI50 (50% of growth inhibition)
Protocol: (§2) Human colorectal cancer cell lines HCT116, HT-29 and human lung cancer cell line, H1299 were purchased from the Bioresource Collection and Research Centre (BCRC, Taiwan) and were incubated either in McCoy’s 5 A medium or RPMI-1640 medium (Thermo Fisher Scientific, Walthma, MA, USA), supplemented with 10% foetal bovine serum and 1% Penicillin-Streptomycin-Amphotericin B Solution (Biological Industries, Kibbutz Beit-Haemek, Israel) at 37 °C in a humidified atmosphere with 5% CO2.
(§3) SRB (sulforhodamine B, Sigma Chemical Co, St Louis, MO, USA) assay was used to analyse cell proliferation. Cells were seeded in 96-well plates at a density of 5000 cells/well and then treated with various concentrations of indicated compounds for 48 h. Cells were fixed with 10% TCA (trichloroacetic acid), washed with PBS, and stained with 100 µL SRB solution (0.4% SRB in 1% acetic acid) for 15 min. Then, cells were washed three times with 1% acetic acid and dissolved in the trizma base solution (10 mM). The absorbance was measured by an ELISA reader (Beckman Coulter Diagnostics, Brea, CA, USA) at […].

HCT116 cells [2] = assay: SRB cell proliferation assay; type: cell-based; details: Homo sapiens, HCT-116, 48 h, read-out: GI50 (50% of growth inhibition)
Protocol: as §2, §3

HT29 cells [3] = assay: SRB cell proliferation assay; type: cell-based; details: Homo sapiens, HT-29, 48 h, read-out: GI50 (50% of growth inhibition)
Protocol: as §2, §3

H1299 cells [4] = assay: MTT cell viability assay; type: cell-based; details: Homo sapiens, NCI-H1299, 72 h, read-out: IC50 (cell survival)
Protocol: as §2
(§4) Cell viability was determined by MTT (3–(4,5-dimethylthiazol-2-yl)-2,5-diphenyltetrazolium bromide, Sigma Chemical Co, St. Louis, MO, USA) assay. Cells were seeded in 96-well plates at a density of 5,000 cells/well in a regular culture medium overnight. Then, the cells were treated with various concentrations of indicated compounds for 72 h. After that, the medium was removed, 100 µL MTT solution (0.5 mg/ml in phosphate-buffered saline, PBS) was added to each well and then incubated for 1 h at 37 °C. The insoluble formazan dyes, representing the active mitochondrial dehydrogenase in live cells, were dissolved in the dimethyl sulfoxide (DMSO). The absorbance was analysed by an ELISA reader (Beckman Coulter, Brea, CA, USA) at 550 nm.

HCT116 cells [5] = assay: MTT cell viability assay; type: cell-based; details: Homo sapiens, HCT-116, 72 h, read-out: IC50 (cell survival)
Protocol: as §2, §4

HT29 cells [6] = assay: MTT cell viability assay; type: cell-based; details: Homo sapiens, HT-29, 72 h, read-out: IC50 (cell survival)
Protocol: as §2, §4

HT-29 cells = assay: Cell cycle distribution by flow cytometry; type: cell-based, Human
Protocol: The cell cycle distribution was measured by flow cytometry. HT-29 cells were treated with or without the indicated concentrations of compound 1 for 24 or 48 h or 72 h. The cells were harvested by trypsinizing and fixed in ice-cold 75% ethanol for 1 h at −20 °C. The samples were washed with PBS and resuspended in the proper amount of DNA extraction buffer, containing 0.2 M Na2HPO4 and 0.1 M citric acid pH 7.8, for 30 min. Then the cells were washed again with PBS and stained with propidium iodide solution containing 100 µg/ml RNaseA, 80 µg/ml propidium iodide and 0.1% Triton X-100, which were all in PBS. Finally, cell cycle distribution was determined and performed by utilising BD Accuri™ and C6 Software (BD Biosciences, Franklin Lakes, NJ, USA).

[7] = test system: panel of around 70 kinases; assay: Kinase selectivity (Thermo Fisher SelectScreen kinome panel); type: biochemical; details: concentration selected based on IC50 values
Protocol: The kinase selectivity of selected compounds was performed by Thermo Fisher Select Screen service. A kinome screen occurred across a panel of roughly 70 kinases. Conditions and analyses are available online (www.thermofisher.com/selectscreen).
To evaluate the selectivity of the inhibitors identified in this study, a biochemical assay was conducted by ThermoFisher Scientific. A panel of around 70 kinases from different kinase families as well as all available members of the STE kinase family, was selected for testing (Supplemental Figure 3). The concentration of the compound was selected based on their IC50 values. […] The target kinase in this study, MAP4K5 and TAOK1, belong to the STE20 kinase family. Of the kinases inhibited by compounds 1 and 2, we found eight and three of the kinases to belong to the STE20 kinase family. Together, this implies that the inhibitors identified in this study are selective towards the STE20 kinase family.

HCT116, HT29 and H1299 = assay: Single-concentration SRB and MTT assays in cancer cell lines; type: cell-based, Human; details: for Effect in cell-based experiments: HCT116, HT-29, H1299
Protocol: as §2, §4, §3

Compound	IC50 (MAP4K5) [µM]	Inhibition percentage at 10 μM MAP4K5 (MAP4K5)	IC50 (TAOK1) [µM]	Inhibition percentage at 10 μM TAOK1 (TAOK1)	Number of kinases inhibited in panel [7]	inhibition at 10 µM (MAP4K5) [%]	inhibition at 10 µM (TAOK1) [%]	also measured
CCN1CCN(CCNc2nccc(-c3c(-c4cccc(O)c4)nc4sccn34)n2)S1(=O)=O [Compound 1]	2.25	≥ 50% and 84%	4.15	≥ 50% and 74%	nine			GI50 (H1299 cells [1]): 19.2 µM; GI50 (HCT116 cells [2]): 3.9 µM; GI50 (HT29 cells [3]): 6.8 µM; IC50 (H1299 cells [4]): 23.6 µM; IC50 (HCT116 cells [5]): 13.3 µM; IC50 (HT29 cells [6]): 13.3 µM; Number of G0/G1-phase cells (HT-29 cells; HT29, 24 h treatment): increased in a concentration-dependent manner; Cell cycle effect (HT-29 cells; HT-29, 24 h): arrested cancer cells at the G0/G1 phase; Number of inhibited kinases belonging to the STE20 kinase family [7]: eight; Cancer cell proliferation (SRB) at 10 µM and survival (MTT) at 30 µM (HCT116, HT29 and H1299; 10 µM for 48 h (SRB), 30 µM for 72 h (MTT), HCT116, HT29, H1299): significantly inhibited
Nc1nc(N)c2nc(-c3ccc(O)cc3)c(-c3ccc(O)cc3)nc2n1 [Compound 2]	2	≥ 50% and 77%	1.83	≥ 50% and 84%	five			Number of inhibited kinases belonging to the STE20 kinase family [7]: three; Effect in cell-based experiments (HCT116, HT29 and H1299): limited effects
Nc1ncnc2nc(-c3ccc(C(=O)c4ccc([N+](=O)[O-])cc4)cc3)[nH]c12 [Compound 3]	6.28	51%	5.3	63%	23 kinases	≥ 50	≥ 50	Effect in cell-based experiments (HCT116, HT29 and H1299): limited effects
Nc1nnc(N)c2nc(-c3ccccc3)c(-c3ccccc3)nc12 [Compound 4]						54	19	
O=C(Nc1nc2ccccc2[nH]1)c1ccc(C(=O)Nc2nc3ccccc3[nH]2)cc1 [Compound 5]						44	1	
CC(=O)Nc1ccc(Nc2nc(Cl)nc(Nc3ccc(NC(C)=O)cc3)n2)cc1 [Compound 6]						41	12	
CC1=C(C(=O)Nc2cccc3c2C(=O)NC3=O)CC(C(=O)Nc2cccc3c2C(=O)NC3=O)=C(C)N1 [Compound 7]						47	4	
